According to patent US8859541B2, “6-alkynylpyridines” (Boehringer Ingelheim International GmbH, priority 2012, dated 2014):

Molecular target: T1, XIAP BIR3 (Homo sapiens, UniProt P98170)
T1 construct: covering amino acids 241 to 356; XIAP BIR3; made in house; host or cells: E. coli
Assay: XIAP BIR3 binding assay (DELFIA), displacement of SMAC peptide
Settings: GST-fusion BIR3 domain (aa 241 to 356) 10 nM, SMAC peptide 10 nM; activity of the (S)-isomers
Protocol: Biological Methods XIAP BIR3 and cIAP1 BIR3 Binding Assays (DELFIA)
Peptide […]-Lys(Biotin), representing the N-terminus of mature human SMAC (SMAC peptide), was used as interaction partner in the protein-peptide interaction assay.
BIR3 domains (10 nM) were incubated with SMAC peptide (10 nM) in Assay Buffer (50 mM Tris, 120 mM NaCl, 0.1% BSA, 1 mM DTT, 0.05% TritonX100) for one hour at room temperature in the presence of inhibitiory compounds. The assay mixture was transferred to a strepatvidin coated plate and incubated for one hour at room temperature to allow binding of the biotinylated peptide and associated BIR3 domains to the plate. After several washing steps Eu labeled anti-GST antibody (e.g. Perkin Elmer DELFIA Eu-N1-antiGST AD0250) was added to detect BIR3 domain-SMAC peptide interactions according to Perkin Elmer's instructions. […] Time resolved Europium fluoresecence was measured in a Wallac Victor using Standard assay settings.
DELFIA assay results were plotted against compound concentrations and Software GraphPad Prizm was used to calculate half maximal inhibitory concentrations (IC50 values).

T1 sequence (P98170 241-356): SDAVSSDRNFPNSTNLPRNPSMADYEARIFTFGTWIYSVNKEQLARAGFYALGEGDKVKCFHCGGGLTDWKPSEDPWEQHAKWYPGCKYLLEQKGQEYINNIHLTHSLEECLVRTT

Row | IC50 | SMILES
1 | 359 nM | CC(N)C(=O)Nc1cccc(C#Cc2ccc(F)cc2)n1 (stereo not drawn) [Example 219, 2-amino-N-[6-[2-(4-fluorophenyl)ethynyl]pyridin-2-yl]propanamide]
2 | 3800 nM | CNC(C)C(=O)Nc1ccc(-c2nccc3ccccc23)c(C#Cc2ccccc2)n1 (stereo not drawn) [Example 179, N-[5-isoquinolin-1-yl-6-(2-phenylethynyl)pyridin-2-yl]-2-(methylamino)propanamide]
3 | 122 nM | CNC(C)C(=O)Nc1ccc(-c2cncnc2)c(C#Cc2cc(F)cc(Cl)c2)n1 (stereo not drawn) [Example 17, N-[6-[2-(3-chloro-5-fluorophenyl)ethynyl]-5-pyrimidin-5-ylpyridin-2-yl]-2-(methylamino)propanamide]
4 | 526 nM | CNC(C)C(=O)Nc1ccc(-c2cnc3ccccc3c2)c(C#Cc2ccc3ccccc3c2)n1 (stereo not drawn) [Example 98, 2-(methylamino)-N-[6-(2-naphthalen-2-ylethynyl)-5-quinolin-3-yl-pyridin-2-yl]propanamide]
5 | 509 nM | CNC(C)C(=O)Nc1ccc(-c2cncc3ccccc23)c(C#Cc2ccc3c(c2)OCC(=O)N3)n1 (stereo not drawn) [Example 5, N-[5-isoquinolin-4-yl-6-[2-(3-oxo-4H-1,4-benzoxazin-7-yl)-ethynyl]pyridin-2-yl]-2-(methylamino)propanamide]
6 | 2880 nM | CNC(C)C(=O)Nc1ccc(-c2c(Cl)cncc2Cl)c(C#Cc2ccc3ncccc3c2)n1 (stereo not drawn) [Example 56, N-[5-(3,5-dichloropyridin-4-yl)-6-(2-quinolin-6-ylethynyl)-pyridin-2-yl]-2-(methylamino)-propanamide]
7 | 4860 nM | CC(N)C(=O)Nc1cccc(C#Cc2cc(Cl)cc(Cl)c2)n1 (stereo not drawn) [Example 231, 2-amino-N-[6-[2-(3,5-dichlorophenyl)ethynyl]pyridin-2-yl]propanamide]
8 | 268 nM | CNC(C)C(=O)Nc1cc(OC)c(-c2cncnc2)c(C#Cc2ccccc2)n1 (stereo not drawn) [Example 199, N-[4-methoxy-6-(2-phenyl-ethynyl)-5-pyrimidin-5-ylpyridin-2-yl]-2-(methyl-amino)propanamide]
9 | 270 nM | CNC(C)C(=O)Nc1ccc(-c2c(C)nc3ccccn23)c(C#Cc2nc3ccccc3s2)n1 (stereo not drawn) [Example 67, N-[6-[2-(1,3-benzothiazol-2-yl)-ethynyl]-5-(2-methyl-imidazo[1,2-a]pyridin-3-yl)-pyridin-2-yl]-2-(methylamino)-propanamide]
10 | 1040 nM | CNC(C)C(=O)Nc1ccc(-c2sc(-c3ccccc3)nc2C)c(C#Cc2ccccc2)n1 (stereo not drawn) [Example 136, 2-(methylamino)-N-[5-(4-methyl-2-phenyl-1,3-thiazol-5-yl)-6-(2-phenylethynyl)pyridin-2-yl]-propanamide]
11 | 1300 nM | CNC(C)C(=O)Nc1ccc(-c2cccc3ccncc23)c(C#Cc2ccc3ncccc3c2)n1 (stereo not drawn) [Example 22, N-[5-isoquinolin-8-yl-6-(2-quinolin-6-ylethynyl)pyridin-2-yl]-2-(methylamino)propan-amide]
12 | 378 nM | CNC(C)C(=O)Nc1ccc(-c2c(C)nc3ccccn23)c(C#Cc2ccc3nc(OC)ccc3c2)n1 (stereo not drawn) [Example 73, N-[6-[2-(2-methoxyquinolin-6-yl)ethynyl]-5-(2-methyl-imidazo[1,2-a]pyridin-3-yl)-pyridin-2-yl]-2-(methylamino)-propanamide]
13 | 2010 nM | CC(N)C(=O)Nc1cccc(C#Cc2ccc(Cl)cc2)n1 (stereo not drawn) [Example 211, 2-amino-N-[6-[2-(4-chlorophenyl)ethynyl]pyridin-2-yl]propanamide]
14 | 128 nM | CNC(C)C(=O)Nc1ccc(-c2cnoc2C)c(C#Cc2ccccc2)n1 (stereo not drawn) [Example 188, 2-(methylamino)-N-[5-(5-methyl-1,2-oxazol-4-yl)-6-(2-phenyl-ethynyl)pyridin-2-yl]propanamide]
15 | 650 nM | CC(N)C(=O)Nc1ccc(-c2ccccc2C#N)c(C#Cc2ccccc2)n1 (stereo not drawn) [Example 109, 2-amino-N-[5-(2-cyanophenyl)-6-(2-phenylethynyl)pyridin-2-yl]-propanamide]
16 | 142 nM | CNC(C)C(=O)Nc1ccc(-c2cc(C(=O)OC)cc([N+](=O)[O-])c2)c(C#Cc2ccccc2)n1 (stereo not drawn) [Example 133, methyl 3-[6-[[2-(methylamino)-propanoyl]amino]-2-(2-phenyl-ethynyl)pyridin-3-yl]-5-nitrobenzoate]
17 | 160 nM | CNC(C)C(=O)Nc1ccc(N(C)S(=O)(=O)c2ccccc2)c(C#Cc2ccccc2)n1 (stereo not drawn) [Example 243, N-[5-[benzenesulfonyl(methyl)amino]-6-(2-phenylethynyl)pyridin-2-yl]-2-(methylamino)propanamide]
18 | 867 nM | CNC(C)C(=O)Nc1ccc(-c2cncnc2)c(C#Cc2ccc3ncccc3c2)n1 (stereo not drawn) [Example 19, 2-(methylamino)-N-[5-pyrimidin-5-yl-6-(2-quinolin-6-ylethynyl)pyridin-2-yl]-propanamide]

Row | IC50 | SMILES
19 | 267 nM | CNC(C)C(=O)Nc1ccc(-c2c(C)nc3ccccn23)c(C#Cc2ccc(-c3ccncc3)cc2)n1 (stereo not drawn) [Example 91, 2-(methylamino)-N-[5-(2-methylimidazo[1,2-a]pyridin-3-yl)-6-[2-(4-pyridin-4-ylphenyl)-ethynyl]pyridin-2-yl]propan-amide]
20 | 483 nM | CNC(C)C(=O)Nc1cc(Cl)c(-c2cncnc2)c(C#Cc2ccccc2)n1 (stereo not drawn) [Example 202, N-[4-chloro-6-(2-phenylethynyl)-5-pyrimidin-5-ylpyridin-2-yl]-2-(methyl-amino)propanamide]
21 | 185 nM | CNC(C)C(=O)Nc1ccc(-c2cncc(C(=O)O)c2)c(C#Cc2ccccc2)n1 (stereo not drawn) [Example 120, 5-[6-[[2-(methylamino)-propanoyl]amino]-2-(2-phenyl-ethynyl)pyridin-3-yl]pyridine-3-carboxylic acid]
22 | 2910 nM | CC(N)C(=O)Nc1cccc(C#Cc2cc(F)cc(F)c2)n1 (stereo not drawn) [Example 233, 2-amino-N-[6-[2-(3,5-difluorophenyl)ethynyl]pyridin-2-yl]propanamide]
23 | 327 nM | CNC(C)C(=O)Nc1ccc(Cc2ccccc2)c(C#Cc2ccccc2)n1 (stereo not drawn) [Example 119, N-[5-benzyl-6-(2-phenylethynyl)pyridin-2-yl]-2-(methylamino)-propan-amide]
24 | 620 nM | CNC(=O)c1ccc(C#Cc2nc(NC(=O)C(C)NC)ccc2-c2c(C)nc3ccccn23)cn1 (stereo not drawn) [Example 62, N-methyl-5-[2-[6-[[2-(methyl-amino)propanoyl]amino]-3-(2-methylimidazo[1,2-a]pyridin-3-yl)pyridin-2-yl]ethynyl]pyridine-2-carboxamide]
25 | 3040 nM | CC(N)C(=O)Nc1ccc(-c2c(Cl)cccc2Cl)c(C#Cc2ccccc2)n1 (stereo not drawn) [Example 103, 2-amino-N-[5-(2,6-dichlorophenyl)-6-(2-phenyl-ethynyl)pyridin-2-yl]propanamide]
26 | 2450 nM | CNC(C)C(=O)Nc1ccc(-c2cccc(-c3ccccc3)c2)c(C#Cc2ccccc2)n1 (stereo not drawn) [Example 150, 2-(methylamino)-N-[6-(2-phenyl-ethynyl)-5-(3-phenylphenyl)-pyridin-2-yl]propanamide]
27 | 310 nM | CNC(C)C(=O)Nc1ccc(-c2c(C)nc3ccccn23)c(C#Cc2ccc(-c3ccncn3)cc2)n1 (stereo not drawn) [Example 55, 2-(methylamino)-N-[5-(2-methylimidazo[1,2-a]pyridin-3-yl)-6-[2-(4-pyrimidin-4-ylphenyl)ethynyl]pyridin-2-yl]-propanamide]
28 | 1410 nM | CNC(C)C(=O)Nc1ccc(-c2cccc(F)c2F)c(C#Cc2ccccc2)n1 (stereo not drawn) [Example 139, N-[5-(2,3-difluorophenyl)-6-(2-phenylethynyl)pyridin-2-yl]-2-(methylamino)propanamide]
29 | 214 nM | CNC(C)C(=O)Nc1ccc(-c2ccc3c(c2)C(=O)CCC3)c(C#Cc2ccccc2)n1 (stereo not drawn) [Example 178, 2-(methylamino)-N-[5-(8-oxo-6,7-dihydro-5H-naphthalen-2-yl)-6-(2-phenylethynyl)pyridin-2-yl]-propanamide]
30 | 1420 nM | CC(N)C(=O)Nc1cccc(C#Cc2ccccc2Cl)n1 (stereo not drawn) [Example 222, 2-amino-N-[6-[2-(2-chlorophenyl)ethynyl]pyridin-2-yl]propanamide]
31 | 569 nM | CNC(C)C(=O)Nc1ccc(-c2cnccc2OC)c(C#Cc2ccc3ccccc3c2)n1 (stereo not drawn) [Example 154, N-[5-(4-methoxypyridin-3-yl)-6-(2-naphthalen-2-ylethynyl)-pyridin-2-yl]-2-(methylamino)-propanamide]
32 | 643 nM | CNC(C)C(=O)Nc1ccc(-c2cncc3ccccc23)c(C#Cc2ccc(F)cc2)n1 (stereo not drawn) [Example 4, N-[6-[2-(4-fluorophenyl)-ethynyl]-5-isoquinolin-4-ylpyridin-2-yl]-2-(methyl-amino)propanamide]
33 | 1460 nM | Cc1ccc(C#Cc2cccc(NC(=O)C(C)N)n2)cc1 (stereo not drawn) [Example 209, 2-amino-N-[6-[2-(4-methylphenyl)ethynyl]pyridin-2-yl]propanamide]
34 | 1520 nM | CNC(C)C(=O)Nc1ccc(NC(=O)C2CCOCC2)c(C#Cc2ccccc2)n1 (stereo not drawn) [Example 246, N-[6-[[2-(methylamino)-propanoyl]amino]-2-(2-phenylethynyl)pyridin-3-yl]-oxane-4-carboxamide]
35 | 490 nM | CC(N)C(=O)Nc1ccc(-c2cccc3cccnc23)c(C#Cc2ccccc2)n1 (stereo not drawn) [Example 135, 2-amino-N-[6-(2-phenylethynyl)-5-quinolin-8-ylpyridin-2-yl]-propanamide]
36 | 128 nM | CC(N)C(=O)Nc1ccc(-c2cccnc2)c(C#Cc2ccccc2)n1 (stereo not drawn) [Example 101, 2-amino-N-[6-(2-phenylethynyl)-5-pyridin-3-ylpyridin-2-yl]-propanamide]
